*1 amine or outer side, *2 acyl side, *3 side chain or, on linkers, in order; H or OH if unused. Where a SMILES comes first, the peptide text is derived from it. Bridges are numbered along the chain shown (N, C = ends). Roman numbers before positions name the chains, in order. [ ]: non-standard residue; d: D form. Actinocin(9to1) = Cc1c2oc3c(C)ccc(C(=O)[*:1])c3nc-2c(C(=O)[*:2])c(N)c1=O; NMeV = CN[C@H](C(=O)O)C(C)C; Sar = CNCC(=O)O
Key:
VEGF mRNA = VEGF mRNA levels in microvessel endothelial (RLMVE) cells by slot blot analysis; assay type: cell-based; conditions: for effect on 12(R)-HETrE-induced VEGF mRNA/expression: co-incubation with 12(R)-HETrE
Protocol: The antagonistic or agonistic activity of 12-HETrE analogs may be measured by measuring increases in vascular cadothelial growth factor (VEGF) mRNA following incubation of microvessel endothelial cells (RLMVE cells) with 12(R)-HETrE and other compounds followed by slot blot analysis, as described in the Examples. […] In this way the 12-HETrE analogs 8-(R) and 8-(S) were determined to be 12(R)-HETrE agonists.
12(R)-HETrE increased VEGF mRNA levels in a time-dependent manner. A 5-fold increase over the control levels was observed 45 min after addition of 12(R)-HETrE. These levels gradually declined to the control levels by 48 h. […] 12(R)-HETrE increased VEGF mRNA in a concentration-dependent manner with 0.1 nM having the maximal effect.
Human VEGF cDNA was used as a probe for slot blot analysis to measure increases in VEGF mRNA following incubation of RLMVE cells with 12(R)-HETrE and 12-HETrE analogs. To measure agonistic activity compounds were added to the incubation medium at concentration of 0.1, 1, and 10 nM and their effect on VEGF mRNA levels after 45 min incubation was measured in comparison to that of 12(R)-HETrE at the same concentration. To measure antagonistic activity, compounds at the above concentrations were added with 0.1 nM 12(R)-HETrE and 45 min later RNA extracted samples were processed for slot blot analysis.

RLME cells = test: Inhibition of [^3H]12(R)-HETrE binding to RLME cells; conditions: analog 1 μM; for % Inhibition of [^3H]12(R)-HETrE binding: [^3H]12(R)-HETrE at 10 nM, RLME cells; for Result (agonist or antagonist): classed from % inhibition of [^3H]12(R)-HETrE binding
Protocol: Alternatively, the antagonistic or agonistic activity of 12-HETrE analogs may be measured by determining the percentage of inhibition of [^3H]12(R)-HETrE binding at 10 nM to RLME cells. Generally, inhibition of [^3H]12(R)-HETrE binding greater than 50% is indicative of agonists and inhibition lower than 50% is indicative of antagonists.

| Structure (SMILES) | % Inhibition of [^3H]12(R)-HETrE binding (RLME cells) | Result (agonist or antagonist) (RLME cells) | further results |
| --- | --- | --- | --- |
| CCCCCC=CC[C@H](O)CCC=CCC=CCCCC(=O)O [12(R)-HETrE, 12(R)-hydroxy-5,8,14-eicosatrienoic acid] | 69.8% | – | time by which VEGF mRNA levels declined to the control levels (VEGF mRNA; 0.1 nM): ≤ 48 h; increase in VEGF mRNA over the control levels (VEGF mRNA; 0.1 nM, 45 min after addition): 5 fold; concentration having the maximal effect on VEGF mRNA (VEGF mRNA; concentration-dependent increase): 0.1 nM |
| CCCCC/C=C\C[C@H](O)CC/C=C\CC#CCCCC(=O)O [3-(R), 12(R)-hydroxyeicosa-8(Z),14(Z)-dien-5-ynoic acid] | 58.1% | Agonist (inhibition of [^3H]12(R)-HETrE binding greater than 50% is indicative of agonists) | – |
| C[C@@H]1C[C@@H]([C@H](O)CC2CC(=O)NC(=O)C2)C(=O)[C@@H](C)C1 [cycloheximide] | – | – | effect on 12(R)-HETrE-induced VEGF mRNA/expression (VEGF mRNA): did not affect |
| Cc1c2oc3c(C)ccc(C(=O)N[C@@H]4C(=O)N[C@H](C(C)C)C(=O)N5CCC[C@H]5C(=O)N(C)CC(=O)N(C)[C@@H](C(C)C)C(=O)O[C@@H]4C)c3nc-2c(C(=O)N[C@@H]2C(=O)N[C@H](C(C)C)C(=O)N3CCC[C@H]3C(=O)N(C)CC(=O)N(C)[C@@H](C(C)C)C(=O)O[C@@H]2C)c(N)c1=O [actinomycin D] (I: T[dV]P[Sar][NMeV] / II: T[dV]P[Sar][NMeV]; ester I:1-I:C, II:1-II:C; linker I:N-II:N via Actinocin(9to1)) | – | – | effect on 12(R)-HETrE-induced VEGF mRNA/expression (VEGF mRNA): abolished |
| CCCCC/C=C\C[C@@H](O)CC/C=C\C/C=C\CCCC(=O)O [12(S)-HETrE, 12(S)-(5Z,8Z,14Z)-12-hydroxyeicosa-5,8,14-trienoic acid, reference compound] | 62.4% | Agonist (inhibition of [^3H]12(R)-HETrE binding greater than 50% is indicative of agonists) | – |
| CCCCC/C=C\C[C@@H](O)CC/C=C\CCCCCCC(=O)O [5-(S), 12(S)-Hydroxyeicosa-8(Z),14(Z)-dienoic acid] | 54.5% | Agonist (inhibition of [^3H]12(R)-HETrE binding greater than 50% is indicative of agonists) | – |
| CCCCC/C=C\C[C@H](O)CC/C=C\C/C=C\CCCC(=O)NS(C)(=O)=O [1-a-(R), N-(Methylsulfonyl)-12(R)-hydroxyeicosa-5(Z),8(Z),14(Z)-trienamide] | 62.6% | Agonist (inhibition of [^3H]12(R)-HETrE binding greater than 50% is indicative of agonists) | – |
| CCCCCCCC[C@@H](O)CC/C=C\C/C=C\CCCC(=O)O [6-(R), 12(R)-Hydroxyeicosa-5(Z),8(Z)-dienoic acid] | 87.2% | Agonist (inhibition of [^3H]12(R)-HETrE binding greater than 50% is indicative of agonists) | – |
| CCCCC/C=C\C[C@H](O)CC/C=C\CCCCCCC(=O)O [5-(R), 12(R)-Hydroxyeicosa-8(Z),14(Z)-dienoic acid] | 92.4% | Agonist (inhibition of [^3H]12(R)-HETrE binding greater than 50% is indicative of agonists) | – |
| CCCCC/C=C\C[C@@H](O)CC/C=C\C/C=C\COCC(=O)O [4-a-(S)] | 24.3% | Antagonist (inhibition lower than 50% is indicative of antagonists) | – |
| CCCCC/C=C\C[C@@H](O)CC/C=C\CC#CCCCC(=O)O [3-(S), 12(S)-Hydroxyeicosa-8(Z),14(Z)-dien-5-ynoic acid] | 23.6% | Antagonist (inhibition lower than 50% is indicative of antagonists) | – |
| CCCCC/C=C\C[C@H](O)CCCCC/C=C\CCCC(=O)O [7-(R), 12(R)-Hydroxy-eicosa-5(Z),14(Z)-dienoic acid] | 88.7% | Agonist (inhibition of [^3H]12(R)-HETrE binding greater than 50% is indicative of agonists) | – |
| CCCCC/C=C\C[C@@H](CC/C=C\C/C=C\CCCC(=O)O)OC [2-(R), 12(R)-Methoxyeicosa-5(Z),8(Z),14(Z)-trienoic acid] | 38.6% | Antagonist (inhibition lower than 50% is indicative of antagonists) | – |
| CCCCC/C=C\C[C@@H](O)CCCCC/C=C\CCCC(=O)O [7-(S), 12(S)-Hydroxyeicosa-5,(Z)14(Z)-dienoic acid] | 69.5% | Agonist (inhibition of [^3H]12(R)-HETrE binding greater than 50% is indicative of agonists) | – |
| CCCCC/C=C\C[C@H](O)CC/C=C\C/C=C\COCC(=O)O [4-a-(R), (9(R)-Hydroxyheptadeca-2(Z),5(Z),11(Z)-trienyloxy)acetic acid] | 48.0% | Antagonist (inhibition lower than 50% is indicative of antagonists) | – |
| CCCCC/C=C\C[C@@H](O)CC/C=C\C/C=C\CCCC(=O)NS(C)(=O)=O [1-a-(S), N-(Methylsulfonyl)-12(S)-hydroxyeicosa-5(Z),8(Z),14(Z)-trienamide] | 33.3% | Antagonist (inhibition lower than 50% is indicative of antagonists) | increase in VEGF mRNA (densitometry) (VEGF mRNA; 1 nM, 45 min incubation): 5 fold; agonistic activity by VEGF mRNA increase (VEGF mRNA; slot blot analysis): significant agonistic activity |
| CCCCC/C=C\C[C@H](CC/C=C\C/C=C\CCCC(=O)O)OC [2-(S), 12(S)-Methoxyeicosa-5(Z),8(Z),14(Z)-trienoic acid] | 34.2% | Antagonist (inhibition lower than 50% is indicative of antagonists) | – |
| CCCCCCCC[C@H](O)CC/C=C\C/C=C\CCCC(=O)O [6-(S), 12(S)-Hydroxyeicosa-5(Z),8(Z)-dienoic acid] | 73.0% | Agonist (inhibition of [^3H]12(R)-HETrE binding greater than 50% is indicative of agonists) | – |
